Data: patent US5672715A, “Herbicidal substituted 3-aryl-pyrazoles” (Monsanto Company, priority 1995, dated 1997)

What was measured:
Assay type in all cases: in vivo
Cocklebur [1] = assay: pre-emergence herbicide test; settings: Xanthium strumarium, pre-emergence, read-out: % plant inhibition; for inhibition at 1000.92 g/ha: 0.893 lb/A; for inhibition at 5043.82 g/ha: 4.5 lb/A
Method in brief: (§1)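 Pre-emergence soil treatment: seeds on compacted topsoil, cover layer dosed with test compound in organic solvent (e.g. acetone) or water. Greenhouse, subirrigated as needed, sometimes 1/4 inch overhead water right after treatment. Read-out ~14 d: % inhibition.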

Corn = assay: pre-emergence herbicide test; settings: Zea mays, pre-emergence, read-out: % plant inhibition; for inhibition at 1000.92 g/ha: 0.893 lb/A; for inhibition at 5043.82 g/ha: 4.5 lb/A
Method in brief: as §1

Barnyardgrass [2] = assay: pre-emergence herbicide test; settings: Echinochloa crus-galli, pre-emergence, read-out: % plant inhibition; for inhibition at 1000.92 g/ha: 0.893 lb/A; for inhibition at 5043.82 g/ha: 4.5 lb/A
Method in brief: as §1

Morning Glory [3] = assay: pre-emergence herbicide test; settings: Ipomoea, pre-emergence, read-out: % plant inhibition; for inhibition at 1000.92 g/ha: 0.893 lb/A; for inhibition at 5043.82 g/ha: 4.5 lb/A
Method in brief: as §1

Soybean = assay: pre-emergence herbicide test; settings: Glycine max, pre-emergence, read-out: % plant inhibition; for inhibition at 1000.92 g/ha: 0.893 lb/A; for inhibition at 5043.82 g/ha: 4.5 lb/A
Method in brief: as §1

Rice = assay: pre-emergence herbicide test; settings: Oryza sativa, read-out: % plant inhibition; for inhibition at 1000.92 g/ha: 0.893 lb/A; for inhibition at 5043.82 g/ha: 4.5 lb/A
Method in brief: as §1

Velvetleaf = assay: pre-emergence herbicide test; settings: Abutilon theophrasti, pre-emergence, read-out: % plant inhibition; for inhibition at 1000.92 g/ha: 0.893 lb/A; for inhibition at 5043.82 g/ha: 4.5 lb/A
Method in brief: as §1

Yellow Foxtail [4] = assay: pre-emergence herbicide test; settings: Setaria, read-out: % plant inhibition; for inhibition at 1000.92 g/ha: 0.893 lb/A; for inhibition at 5043.82 g/ha: 4.5 lb/A
Method in brief: as §1

Yellow Nutsedge [5] = assay: pre-emergence herbicide test; settings: Cyperus, read-out: % plant inhibition; for inhibition at 1000.92 g/ha: 0.893 lb/A; for inhibition at 5043.82 g/ha: 4.5 lb/A
Method in brief: as §1

Cocklebur [6] = assay: post-emergence herbicide test; settings: Xanthium strumarium, post-emergence, read-out: % plant inhibition; for inhibition at 200.072 g/ha: 0.1785 lb/A; for inhibition at 1000.92 g/ha: 0.893 lb/A; for inhibition at 5043.82 g/ha: 4.5 lb/A
Method in brief: (§2)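 Greenhouse plants grown from seeds in topsoil were treated two to three weeks after sowing with a spray solution or suspension of test chemical with about 0.4% by volume emulsifier, applied at 1870 L/Ha and 170.3 kPa. Percent inhibition per species was the endpoint.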

Barnyardgrass [7] = assay: post-emergence herbicide test; settings: Echinochloa crus-galli, post-emergence, read-out: % plant inhibition; for inhibition at 200.072 g/ha: 0.1785 lb/A; for inhibition at 1000.92 g/ha: 0.893 lb/A; for inhibition at 5043.82 g/ha: 4.5 lb/A
Method in brief: as §2

Morning Glory [8] = assay: post-emergence herbicide test; settings: Ipomoea, post-emergence, read-out: % plant inhibition; for inhibition at 200.072 g/ha: 0.1785 lb/A; for inhibition at 1000.92 g/ha: 0.893 lb/A; for inhibition at 5043.82 g/ha: 4.5 lb/A
Method in brief: as §2

Bedstraw Catchweed = assay: post-emergence herbicide test; settings: Galium aparine, post-emergence, read-out: % plant inhibition; for inhibition at 200.072 g/ha: 0.1785 lb/A; for inhibition at 1000.92 g/ha: 0.893 lb/A; for inhibition at 5043.82 g/ha: 4.5 lb/A
Method in brief: as §2

Common Chickweed = assay: post-emergence herbicide test; settings: post-emergence, read-out: % plant inhibition; for inhibition at 200.072 g/ha: 0.1785 lb/A; for inhibition at 1000.92 g/ha: 0.893 lb/A; for inhibition at 5043.82 g/ha: 4.5 lb/A
Method in brief: as §2

Yellow Foxtail [9] = assay: post-emergence herbicide test; settings: Setaria, read-out: % plant inhibition; for inhibition at 200.072 g/ha: 0.1785 lb/A; for inhibition at 1000.92 g/ha: 0.893 lb/A; for inhibition at 5043.82 g/ha: 4.5 lb/A
Method in brief: as §2

Yellow Nutsedge [10] = assay: post-emergence herbicide test; settings: Cyperus, read-out: % plant inhibition; for inhibition at 200.072 g/ha: 0.1785 lb/A; for inhibition at 1000.92 g/ha: 0.893 lb/A; for inhibition at 5043.82 g/ha: 4.5 lb/A
Method in brief: as §2

`Cn1nc(-c2cc(F)ccc2F)c(C=O)c1C(F)(F)F` [Compound 34] showed an inhibition at 200.072 g/ha (Cocklebur [1]; 0.1785 lb/A) of 0%, an inhibition at 1000.92 g/ha (Cocklebur [1]) of 0% and an inhibition at 5043.82 g/ha (Cocklebur [1]) of 0%. It also gave an inhibition at 200.072 g/ha (Corn; 0.1785 lb/A) of 0%, an inhibition at 1000.92 g/ha (Corn) of 0% and an inhibition at 5043.82 g/ha (Corn) of 0%. The inhibition at 200.072 g/ha (Barnyardgrass [2]; 0.1785 lb/A) was 0%, the inhibition at 1000.92 g/ha (Barnyardgrass [2]) was 0% and the inhibition at 5043.82 g/ha (Barnyardgrass [2]) was 0%. The inhibition at 200.072 g/ha (Morning Glory [3]; 0.1785 lb/A) was 0%, the inhibition at 1000.92 g/ha (Morning Glory [3]) was 0% and the inhibition at 5043.82 g/ha (Morning Glory [3]) was 0%. The inhibition at 200.072 g/ha (Soybean; 0.1785 lb/A) was 0%, the inhibition at 1000.92 g/ha (Soybean) was 0% and the inhibition at 5043.82 g/ha (Soybean) was 0%. It also gave an inhibition at 200.072 g/ha (Rice; 0.1785 lb/A) of 0%, an inhibition at 1000.92 g/ha (Rice) of 0% and an inhibition at 5043.82 g/ha (Rice) of 0%. It also gave an inhibition at 200.072 g/ha (Velvetleaf; 0.1785 lb/A) of 0%, an inhibition at 1000.92 g/ha (Velvetleaf) of 15% and an inhibition at 5043.82 g/ha (Velvetleaf) of 75%. For the same compound, the inhibition at 200.072 g/ha (Yellow Foxtail [4]; 0.1785 lb/A) was 0%, the inhibition at 1000.92 g/ha (Yellow Foxtail [4]) was 0% and the inhibition at 5043.82 g/ha (Yellow Foxtail [4]) was 20%. For the same compound, the inhibition at 200.072 g/ha (Yellow Nutsedge [5]; 0.1785 lb/A) was 0%, the inhibition at 1000.92 g/ha (Yellow Nutsedge [5]) was 0% and the inhibition at 5043.82 g/ha (Yellow Nutsedge [5]) was 20%. The inhibition at 200.072 g/ha (Cocklebur [6]) was 0%, the inhibition at 1000.92 g/ha (Cocklebur [6]) was 0% and the inhibition at 5043.82 g/ha (Cocklebur [6]) was 25%. The inhibition at 200.072 g/ha (Barnyardgrass [7]) was 0%, the inhibition at 1000.92 g/ha (Barnyardgrass [7]) was 0% and the inhibition at 5043.82 g/ha (Barnyardgrass [7]) was 10%. The inhibition at 200.072 g/ha (Morning Glory [8]) was 0%, the inhibition at 1000.92 g/ha (Morning Glory [8]) was 0% and the inhibition at 5043.82 g/ha (Morning Glory [8]) was 55%. The inhibition at 200.072 g/ha (Bedstraw Catchweed) was 0%, the inhibition at 1000.92 g/ha (Bedstraw Catchweed) was 0% and the inhibition at 5043.82 g/ha (Bedstraw Catchweed) was 80%. The inhibition at 200.072 g/ha (Common Chickweed) was 0%, the inhibition at 1000.92 g/ha (Common Chickweed) was 0% and the inhibition at 5043.82 g/ha (Common Chickweed) was 0%. It also gave an inhibition at 200.072 g/ha (Yellow Foxtail [9]) of 0%, an inhibition at 1000.92 g/ha (Yellow Foxtail [9]) of 0% and an inhibition at 5043.82 g/ha (Yellow Foxtail [9]) of 0%. For the same compound, the inhibition at 200.072 g/ha (Yellow Nutsedge [10]) was 0%, the inhibition at 1000.92 g/ha (Yellow Nutsedge [10]) was 0% and the inhibition at 5043.82 g/ha (Yellow Nutsedge [10]) was 0%.

`Cc1c(-c2cc(F)ccc2F)nn(C)c1C(F)(F)F` [Compound 1, 3-(2,5-Difluorophenyl)-1,4-dimethyl-5-(trifluoromethyl)-1H-pyrazole] showed an inhibition at 1000.92 g/ha (Cocklebur [1]) of 0%, an inhibition at 5043.82 g/ha (Cocklebur [1]) of 0% and an inhibition at 1000.92 g/ha (Corn) of 0%. For the same compound, the inhibition at 5043.82 g/ha (Corn) was 10%, the inhibition at 1000.92 g/ha (Barnyardgrass [2]) was 0% and the inhibition at 5043.82 g/ha (Barnyardgrass [2]) was 50%. For the same compound, the inhibition at 1000.92 g/ha (Morning Glory [3]) was 0%, the inhibition at 5043.82 g/ha (Morning Glory [3]) was 35% and the inhibition at 1000.92 g/ha (Soybean) was 0%. The inhibition at 5043.82 g/ha (Soybean) was 0%, the inhibition at 1000.92 g/ha (Rice) was 25% and the inhibition at 5043.82 g/ha (Rice) was 0%. The inhibition at 1000.92 g/ha (Velvetleaf) was 0%, the inhibition at 5043.82 g/ha (Velvetleaf) was 65% and the inhibition at 1000.92 g/ha (Yellow Foxtail [4]) was 0%. For the same compound, the inhibition at 5043.82 g/ha (Yellow Foxtail [4]) was 35%, the inhibition at 1000.92 g/ha (Yellow Nutsedge [5]) was 0% and the inhibition at 5043.82 g/ha (Yellow Nutsedge [5]) was 45%. The inhibition at 200.072 g/ha (Cocklebur [6]) was 0%, the inhibition at 1000.92 g/ha (Cocklebur [6]) was 0% and the inhibition at 5043.82 g/ha (Cocklebur [6]) was 0%. It also gave an inhibition at 200.072 g/ha (Barnyardgrass [7]) of 0%, an inhibition at 1000.92 g/ha (Barnyardgrass [7]) of 0% and an inhibition at 5043.82 g/ha (Barnyardgrass [7]) of 0%. It also gave an inhibition at 200.072 g/ha (Morning Glory [8]) of 0%, an inhibition at 1000.92 g/ha (Morning Glory [8]) of 0% and an inhibition at 5043.82 g/ha (Morning Glory [8]) of 15%. The inhibition at 200.072 g/ha (Bedstraw Catchweed) was 0%, the inhibition at 1000.92 g/ha (Bedstraw Catchweed) was 0% and the inhibition at 5043.82 g/ha (Bedstraw Catchweed) was 30%. For the same compound, the inhibition at 200.072 g/ha (Common Chickweed) was 0%, the inhibition at 1000.92 g/ha (Common Chickweed) was 0% and the inhibition at 5043.82 g/ha (Common Chickweed) was 40%. It also gave an inhibition at 200.072 g/ha (Yellow Foxtail [9]) of 0%, an inhibition at 1000.92 g/ha (Yellow Foxtail [9]) of 0% and an inhibition at 5043.82 g/ha (Yellow Foxtail [9]) of 50%. The inhibition at 200.072 g/ha (Yellow Nutsedge [10]) was 0%, the inhibition at 1000.92 g/ha (Yellow Nutsedge [10]) was 0% and the inhibition at 5043.82 g/ha (Yellow Nutsedge [10]) was 30%.
